Reference: patent publication US20070128217A1 (priority 2003, published 2007)

Columns and labels:
[1] = system: control sera (pooled serum of ten healthy LUMC hospital workers; commercial negative donor pooled serum from the Dutch bloodbank); format: binding, human; parameters: Binding of Control serum LUMC to linear peptides / Binding of Control serum Blood-bank to linear peptides / Binding of Control serum LUMC to looped peptides / Binding of Control Serum Blood-Bank to Looped peptides / Binding of Control serum LUMC to linear peptides of the protein M of SARS-CoV Urbani / Binding of Control serum Blood-bank to linear peptides of the protein M of SARS-CoV Urbani / Binding of Control serum LUMC to looped peptides of the protein M of SARS-CoV Urbani / Binding of Control Serum Blood-Bank to Looped peptides of the protein M of SARS-CoV Urbani: unit not given here
[2] = system: recombinant human anti-SARS-CoV antibody 03-018; format: binding; parameters: Binding of antibody 03-018 to linear peptides of the N protein of SARS-CoV Urbani / Binding of antibody 03-018 to looped/cyclic peptides of the N protein of SARS-CoV Urbani: unit not given here
[3] = system: antibodies in sera from SARS patients (sera 1a, 1b, 2, 6, 37, 62, London, SARS-yellow, SARS-green); format: binding, human; parameters: Binding of serum 6 to linear peptides of protein X1 of SARS-CoV Urbani / Binding of serum 37 to linear peptides of protein X1 of SARS-CoV Urbani / Binding of serum 6 to looped/cyclic peptide (PEPSCAN-ELISA) / Binding of serum 37 to looped/cyclic peptide (PEPSCAN-ELISA) / Binding of serum 37 to looped/cyclic peptides of protein X1 of SARS-CoV Urbani / Binding of serum 6 to linear peptides of protein X2 / Binding of serum 37 to linear peptides of protein X2 / Binding of serum 37 to looped/cyclic peptides of protein X2 of SARS-CoV Urbani / Binding of serum 6 to linear peptides of protein M of SARS-CoV Urbani / Binding of serum 37 to linear peptides of protein M of SARS-CoV Urbani / Binding of serum 6 to looped/cyclic peptides of protein M of SARS-CoV Urbani / Binding of serum 37 to looped/cyclic peptides of protein M of SARS-CoV Urbani / Binding of serum 6 to linear peptides of protein X3 of SARS-CoV Urbani / Binding of serum 37 to linear peptides of protein X3 of SARS-CoV Urbani / Binding of serum 37 to looped/cyclic peptides of protein X3 of SARS-CoV Urbani / Binding of serum 6 to linear peptides of protein X4 of SARS-CoV Urbani / Binding of serum 37 to linear peptides of protein X4 of SARS-CoV Urbani / Binding of serum 37 to looped/cyclic peptides of protein X4 of SARS-CoV Urbani / Binding of serum 6 to linear peptides of protein X5 of SARS-CoV Urbani / Binding of serum 37 to linear peptides of protein X5 of SARS-CoV Urbani / Binding of serum 37 to looped/cyclic peptides of protein X5 of SARS-CoV Urbani / Binding of serum 6 to linear peptides of protein N of SARS-CoV Urbani / Binding of serum 37 to linear peptides of protein N of SARS-CoV Urbani / Binding of serum 6 to linear peptide (PEPSCAN-ELISA) / Binding of serum 1a to looped/cyclic peptides of protein N of SARS-CoV Urbani / Binding of serum 1b to looped/cyclic peptides of protein N of SARS-CoV Urbani / Binding of serum 2 to looped/cyclic peptides of protein N of SARS-CoV Urbani / Binding of serum 6 to looped/cyclic peptides of protein N of SARS-CoV Urbani / Binding of serum 37 to looped/cyclic peptides of protein N of SARS-CoV Urbani / Binding of serum 62 to looped/cyclic peptides of protein N of SARS-CoV Urbani / Binding of serum London to looped/cyclic peptides of protein N of SARS-CoV Urbani / Binding of serum SARS-green to looped/cyclic peptides of protein N of SARS-CoV Urbani: unit not given here
[4] = system: rabbit serum obtained by immunizing a rabbit with the SARS-CoV strain Frankfurt 1; format: binding; parameters: Binding of a rabbit serum to linear peptides / Binding of a rabbit serum to looped peptides / Rabbit serum linear peptides / Rabbit serum looped peptides / Binding of a rabbit serum to linear peptides of protein N of SARS-CoV Urbani (Rabbit serum linear peptides) / Binding of a rabbit serum to looped/cyclic peptides of protein N of SARS-CoV Urbani (Rabbit serum looped peptides): unit not given here

Row | Sequence | Binding of Control Serum Blood-Bank to Looped peptides [1] | Binding of Control serum Blood-bank to linear peptides [1] | Binding of Control serum LUMC to linear peptides [1] | Binding of Control serum LUMC to looped peptides [1] | Binding of antibody 03-018 to linear peptides of the N protein of SARS-CoV Urbani [2] | Binding of antibody 03-018 to looped/cyclic peptides of the N protein of SARS-CoV Urbani [2] | Binding of serum 1a to linear peptides of protein N of SARS-CoV Urbani [3] | Binding of serum 1a to looped/cyclic peptides of protein N of SARS-CoV Urbani [3] | Binding of serum 1b to linear peptides of protein N of SARS-CoV Urbani [3] | Binding of serum 1b to looped/cyclic peptides of protein N of SARS-CoV Urbani [3] | Binding of serum 2 to linear peptides of protein N of SARS-CoV Urbani [3] | Binding of serum 2 to looped/cyclic peptides of protein N of SARS-CoV Urbani [3] | Binding of serum 6 to looped/cyclic peptides of protein N of SARS-CoV Urbani [3] | Binding of serum 37 to looped/cyclic peptides of protein N of SARS-CoV Urbani [3] | Binding of serum 62 to looped/cyclic peptides of protein N of SARS-CoV Urbani [3] | Binding of serum London to looped/cyclic peptides of protein N of SARS-CoV Urbani [3] | Binding of serum SARS-green to looped/cyclic peptides of protein N of SARS-CoV Urbani [3] | Binding of serum SARS-yellow to looped/cyclic peptides of protein N of SARS-CoV Urbani [3] | Binding of a rabbit serum to linear peptides of protein N of SARS-CoV Urbani (Rabbit serum linear peptides) [4] | Binding of a rabbit serum to looped/cyclic peptides of protein N of SARS-CoV Urbani (Rabbit serum looped peptides) [4] | other results
1 | RGQGVPINTNSGPDD | 0.4 | 0.5 | 0.5 | 0.4 | 0.1 | 0.2 | 0.2 | 0.2 | 0.1 | 0.1 | 0.1 | 0.2 | 0.1 | 0.3 | 0.2 | 0.2 | 0.2 | 0.0 | 0.1 | 0.0 | Binding of serum 6 to linear peptides of protein N of SARS-CoV Urbani [3]: 0.1; Binding of serum 37 to linear peptides of protein N of SARS-CoV Urbani [3]: 0.3; Binding of serum 62 to linear peptides of protein N of SARS-CoV Urbani [3]: 0.4; Binding of serum London to linear peptides of protein N of SARS-CoV Urbani [3]: 0.4; Binding of serum SARS-green to linear peptides of protein N of SARS-CoV Urbani [3]: 0.4; Binding of serum SARS-yellow to linear peptides of protein N of SARS-CoV Urbani [3]: 0.6
2 | RLNQLESKVSGKGQQ | 0.6 | 0.8 | 0.7 | 0.7 | 0.1 | 0.2 | – | 0.4 | – | 0.3 | – | 0.5 | 0.4 | 0.6 | 0.7 | 0.4 | 0.4 | 0.8 | 0.2 | 0.6 | Binding of serum 1a to linear peptide (PEPSCAN-ELISA) [3]: 0.3; Binding of serum 1b to linear peptide (PEPSCAN-ELISA) [3]: 0.2; Binding of serum 2 to linear peptide (PEPSCAN-ELISA) [3]: 0.3; Binding of serum 6 to linear peptide (PEPSCAN-ELISA) [3]: 0.2; Binding of serum 37 to linear peptide (PEPSCAN-ELISA) [3]: 0.7; Binding of serum 62 to linear peptide (PEPSCAN-ELISA) [3]: 0.9; Binding of serum London to linear peptide (PEPSCAN-ELISA) [3]: 0.6; Binding of serum SARS-green to linear peptide (PEPSCAN-ELISA) [3]: 0.4; Binding of serum SARS-yellow to linear peptide (PEPSCAN-ELISA) [3]: 0.7
3 | RNGARPKQRRPQGLP | 0.5 | 0.8 | 0.6 | 0.6 | 0.1 | 0.3 | 0.2 | 0.2 | 0.1 | 0.1 | 0.2 | 0.3 | 0.2 | 0.5 | 0.4 | 0.4 | 0.3 | 0.2 | 0.1 | 0.2 | Binding of serum 6 to linear peptides of protein N of SARS-CoV Urbani [3]: 0.2; Binding of serum 37 to linear peptides of protein N of SARS-CoV Urbani [3]: 0.6; Binding of serum 62 to linear peptides of protein N of SARS-CoV Urbani [3]: 0.6; Binding of serum London to linear peptides of protein N of SARS-CoV Urbani [3]: 0.5; Binding of serum SARS-green to linear peptides of protein N of SARS-CoV Urbani [3]: 0.4; Binding of serum SARS-yellow to linear peptides of protein N of SARS-CoV Urbani [3]: 0.5
4 | RNPNNNAATVLQLPQ | 0.8 | 0.7 | 0.7 | 0.9 | 0.1 | 0.2 | 0.2 | 0.4 | 0.1 | 0.4 | 0.3 | 0.7 | 0.3 | 0.8 | 0.9 | 0.6 | 0.6 | 0.4 | 0.1 | 0.8 | Binding of serum 6 to linear peptides of protein N of SARS-CoV Urbani [3]: 0.2; Binding of serum 37 to linear peptides of protein N of SARS-CoV Urbani [3]: 0.6; Binding of serum 62 to linear peptides of protein N of SARS-CoV Urbani [3]: 0.7; Binding of serum London to linear peptides of protein N of SARS-CoV Urbani [3]: 0.5; Binding of serum SARS-green to linear peptides of protein N of SARS-CoV Urbani [3]: 0.3; Binding of serum SARS-yellow to linear peptides of protein N of SARS-CoV Urbani [3]: 0.6
